# Measurements published in publication PMC7734798 (ACS Medicinal Chemistry Letters, 2020).
# System: primary rat cerebellar granule neurons (CGNs)
# Test: Neuroprotection assay: glutamate/glycine excitotoxicity in differentiated CGNs (MTT)
# Type: cell-based
# Conditions: CGNs 8 DIV
# Experimental: Several lines of evidence point to MS as not only an inflammatory but also a neurodegenerative disease. Thus, neuroprotective agents may hold promise for MS therapy.[32] […] Thus, to test the neuroprotective capability of 1 and 2, we used a glutamate excitotoxicity model of primary cultural neurons. At day 8 in vitro (8 DIV), CGNs were pretreated with the compounds for 6 h, before adding 100 μM glutamate/10 μM glycine insult for further 24 h. […] Furthermore, while reference compounds (alone and in combination) increase glutamate/glycine excitotoxicity at higher doses, 1 was not toxic even at the highest concentration tested (25 μM). […]
# committee (Protocol n° 17-72-1212) and performed according to Italian and European Community laws on the use of animals for experimental purposes. […]
# heat-inactivated FBS (Aurogene), 2 mM glutamine, 100 μM gentamicin sulphate and 25 mM KCl (all from Sigma-Aldrich). […] The viability of CGNs exposed to increasing concentrations of the studied compounds (0, 5, 10 and 25 μM) for 24 h was evaluated through the MTT assay. […] Following a 20 min incubation at 37 °C in the dark, the MTT precipitate was dissolved in 0.1 M Tris-HCl pH 7.5 buffer containing 5% Triton X-100 (all from Sigma-Aldrich) and absorbance was read at 570 nm in a multiplate spectophotometric reader (Bio-Rad). […] After 24 hours, neuronal survival has been evaluated through MTT assay. […]
compound,measurement,setting,value
CC/C=C\C/C=C\C/C=C\CCCCCCCC(=O)NCCNC(=O)C(CCC)CCC [compound 1],toxicity under glutamate/glycine excitotoxicity at higher doses,"100 μM glutamate/10 μM glycine, highest concentration tested 25 μM",not toxic
same,neuroprotection against glutamatergic excitotoxicity (MTT),"6 h pretreatment + 24 h with 100 μM glutamate/10 μM glycine, especially at 5 and 10 μM",more neuroprotective
